Experimental data published in PMC9525273 (Nature Communications, 2022).
“And” between values parts separate entries of the source, which are not always exact repeats. Equal entries are not always repeated. Where two headings read alike, the source gives them in different places.

Columns and labels:
Format in all cases: cell-based, Plasmodium falciparum
Dd2-Polδ parasites = assay: P. falciparum proliferation assay (72 h, fluorescent DNA-intercalating dye); settings: Dd2-Polδ parasites
Method: (§1) For experiments with all other parasites, the effects of compounds of interest on parasite proliferation was measured in 96-well plates containing serial dilutions of the compounds in culture medium, with a fluorescent DNA-intercalating dye used to detect surviving parasites. The assays were initiated with erythrocytes infected with predominantly ring-stage parasites, and the starting parasitaemia and haematocrit were both 1%.

[1] = tested on: Dd2-Polδ-PfATP4^G358S parasites; assay: as above; settings: for IC50: Dd2-Polδ-PfATP4G358S parasites
Method: as §1

NF54^WT parasites = assay: microbe, parasite or virus in culture
Method: (§2) For the NF54-based lines and Dd2-B2-PfATP4^G358S and its parent, assays were initiated with cultures containing predominantly ring-stage parasites with a parasitaemia of 0.3% and a haematocrit of 1%. All assays using NF54 were performed in culture media containing 10% O + human serum. The duration of the assays was 72 h and the concentration of DMSO was <0.5% (v/v). Serial dilutions of the test compounds were performed using a Tecan D300e digital dispenser, with parasite cultures added manually. Parasite survival was assessed by flow cytometry on an Intellicyt iQue3 (Essen Bioscience), with 1× SYBR Green I (Invitrogen) and 200 nM MitoTracker Deep Red FM (Invitrogen) used to stain the nucleus and the mitochondria in live parasites, respectively. The gating strategy used to quantify parasite survival, performed using FlowJo version 10 (FlowJo LLC.), is illustrated in Supplementary Fig. 9. IC50 and IC90 values were calculated by linear interpolation of the dose-response data.

NF54^CTL parasites = assay: P. falciparum proliferation assay (72 h, flow cytometry, SYBR Green I/MitoTracker)
Method: as §2

NF54^G358S-1 parasites = assay: as above; settings: for FC (IC50) / FC (IC90): NF54G358S-1 compared to NF54WT
Method: as §2

NF54^G358S-2 parasites = assay: as above
Method: as §2

[2] = tested on: parasite lines with a G358S mutation in PfATP4; assay: P. falciparum proliferation assays, statements on all lines with the G358S mutation; settings: G358S lines vs PfATP4 wild-type controls
Method: as §2, with “Two types of parasite proliferation assays were employed in this study, with both yielding highly consistent results. For” for “For”
as §1, with “1%. […] Fluorescence was measured using a FLUOstar OPTIMA plate reader (BMG LABTECH), with OPTIMA version 2.20R2 and MARS Data Analysis Software version 3.01 R2 (BMG LABTECH).” for “1%.”

[3] = individual experiments, read-out: IC50 values
[4] = mean of the experiments, read-out: IC50 values, MEAN
[5] = NF54WT parasites, individual experiments, read-out: IC50 values
[6] = NF54WT parasites, individual experiments, read-out: IC90 values
[7] = NF54CTL parasites, individual experiments, read-out: IC50 values
[8] = NF54G358S-1 parasites, individual experiments, read-out: IC50 values
[9] = NF54G358S-1 parasites, individual experiments, read-out: IC90 values
[10] = NF54G358S-2 parasites, individual experiments, read-out: IC50 values
[11] = NF54G358S-2 parasites, individual experiments, read-out: IC90 values

CCOC(=O)C1=CN(C)C=C(C(=O)OCC)C1c1cc(Br)c(OCC)c(OC)c1 [MMV006656]
IC50 (Dd2-Polδ parasites; [3]): 435 nM and 243 nM and 394 nM and 305 nM | IC50 (Dd2-Polδ parasites; [4]): 344 nM | IC50 [1, 3]: 1560 nM and 1990 nM and 1300 nM and 2350 nM | IC50 [1, 4]: 1800 nM | IC50 fold higher than that of Dd2-Polδ parent ([1]; Dd2-Polδ-PfATP4G358S vs Dd2-Polδ, mean ± SEM): 5.7 ± 1.3 fold

CCNCc1cc(Nc2ccnc3cc(Cl)ccc23)ccc1O [Monodesethyl‐amodiaquine]
IC50 (NF54^WT parasites; [5]): 10.5 nM | IC90 (NF54^WT parasites; [6]): 7.38 nM and 7.32 nM and 7.45 nM and 14.6 nM | IC50 (NF54^WT parasites; NF54WT parasites, mean of the experiments, read-out: IC50 values, MEAN): 6.9 nM | IC90 (NF54^WT parasites; NF54WT parasites, mean of the experiments, read-out: IC90 values, MEAN): 9.2 nM | FC (IC50) (NF54^WT parasites; NF54WT, reference line): 1.0 fold | FC (IC90) (NF54^WT parasites; NF54WT, reference line): 1.0 fold | FC (Mean IC90/IC50) (NF54^WT parasites; NF54WT, reference line): 1.0 fold | IC50 (NF54^WT parasites; read-out: IC50 values): 5.7 nM | FC (IC50) (NF54^CTL parasites; NF54CTL compared to NF54WT): 1.0 fold | FC (IC90) (NF54^CTL parasites; NF54CTL compared to NF54WT): 1.5 fold | FC (Mean IC90/IC50) (NF54^CTL parasites; NF54CTL compared to NF54WT): 1.5 fold | IC50 (NF54^CTL parasites; [7]): 6.5 nM and 6.8 nM and 7.4 nM and 7.2 nM | IC50 (NF54^CTL parasites; NF54CTL parasites, mean of the experiments, read-out: IC50 values, MEAN): 7 nM | IC50 (NF54^G358S-1 parasites; NF54G358S-1, 10% human serum, read-out: IC50 ± SEM): 7.6 ± 0.8 nM | FC (IC50) (NF54^G358S-1 parasites): 1.1 fold | FC (IC90) (NF54^G358S-1 parasites): 1.4 fold | IC50 (NF54^G358S-1 parasites; [8]): 5.6 nM and 7.6 nM and 8.1 nM and 9.2 nM | IC90 (NF54^G358S-1 parasites; [9]): 7.37 nM and 14 nM (2×) and 14.3 nM | IC50 (NF54^G358S-1 parasites; NF54G358S-1 parasites, mean of the experiments, read-out: IC50 values, MEAN): 7.6 nM | IC90 (NF54^G358S-1 parasites; NF54G358S-1 parasites, mean of the experiments, read-out: IC90 values, MEAN): 12.4 nM | FC (IC50) (NF54^G358S-2 parasites; NF54G358S-2 compared to NF54WT): 1.0 fold | FC (IC90) (NF54^G358S-2 parasites; NF54G358S-2 compared to NF54WT): 1.3 fold | FC (Mean IC90/IC50) (NF54^G358S-2 parasites; NF54G358S-2 compared to NF54WT): 1.3 fold | IC50 (NF54^G358S-2 parasites; [10]): 5.9 nM and 7.4 nM and 7 nM | IC90 (NF54^G358S-2 parasites; [11]): 7.97 nM and 13.8 nM and 13.5 nM | IC50 (NF54^G358S-2 parasites; NF54G358S-2 parasites, mean of the experiments, read-out: IC50 values, MEAN): 6.8 nM | IC90 (NF54^G358S-2 parasites; NF54G358S-2 parasites, mean of the experiments, read-out: IC90 values, MEAN): 12.2 nM | effect of the G358S mutation in PfATP4 on parasite susceptibility [2]: no effect

Clc1ccc2c(N3CCN(CCCN4CCN(c5ccnc6cc(Cl)ccc56)CC4)CC3)ccnc2c1 [Piperaquine]
IC50 (NF54^WT parasites; [5]): 22 nM and 14.7 nM and 19.4 nM | IC90 (NF54^WT parasites; [6]): 29.8 nM and 27.5 nM and 28.8 nM | FC (IC50) (NF54^WT parasites; NF54WT, reference line): 1.0 fold | FC (IC90) (NF54^WT parasites; NF54WT, reference line): 1.0 fold | IC50 (NF54^WT parasites; Plasmodium falciparum, NF54, NF54WT parasites, individual experiments, read-out: IC50 values): 22.7 nM | IC90 (NF54^WT parasites; Plasmodium falciparum, NF54, NF54WT parasites, individual experiments, read-out: IC90 values): 30 nM | IC50 (NF54^WT parasites; Plasmodium falciparum, NF54, NF54WT parasites, mean of the experiments, read-out: IC50 values, MEAN): 19.7 nM | IC90 (NF54^WT parasites; Plasmodium falciparum, NF54, NF54WT parasites, mean of the experiments, read-out: IC90 values, MEAN): 29 nM | FC (IC50) (NF54^CTL parasites; NF54CTL compared to NF54WT): 0.9 fold | FC (IC90) (NF54^CTL parasites; NF54CTL compared to NF54WT): 1.2 fold | IC50 (NF54^CTL parasites; [7]): 20.9 nM and 14.5 nM and 11.8 nM | IC90 (NF54^CTL parasites; NF54CTL parasites, individual experiments, read-out: IC90 values): 37.3 nM and 28.1 nM and 26.3 nM | IC50 (NF54^CTL parasites; Plasmodium falciparum, NF54, NF54CTL parasites, individual experiments, read-out: IC50 values): 21.9 nM | IC90 (NF54^CTL parasites; Plasmodium falciparum, NF54, NF54CTL parasites, individual experiments, read-out: IC90 values): 45.9 nM | IC50 (NF54^CTL parasites; Plasmodium falciparum, NF54, NF54CTL parasites, mean of the experiments, read-out: IC50 values, MEAN): 17.3 nM | IC90 (NF54^CTL parasites; Plasmodium falciparum, NF54, NF54CTL parasites, mean of the experiments, read-out: IC90 values, MEAN): 34.4 nM | FC (IC50) (NF54^G358S-1 parasites): 0.9 fold | FC (IC90) (NF54^G358S-1 parasites): 1.1 fold | IC50 (NF54^G358S-1 parasites; [8]): 22.2 nM and 14.8 nM and 12.9 nM | IC90 (NF54^G358S-1 parasites; [9]): 43.7 nM and 27.9 nM and 26.4 nM | IC50 (NF54^G358S-1 parasites; Plasmodium falciparum, NF54, NF54G358S-1 parasites, individual experiments, read-out: IC50 values): 20.8 nM | IC90 (NF54^G358S-1 parasites; Plasmodium falciparum, NF54, NF54G358S-1 parasites, individual experiments, read-out: IC90 values): 34.2 nM | IC50 (NF54^G358S-1 parasites; Plasmodium falciparum, NF54, NF54G358S-1 parasites, mean of the experiments, read-out: IC50 values, MEAN): 17.7 nM | IC90 (NF54^G358S-1 parasites; Plasmodium falciparum, NF54, NF54G358S-1 parasites, mean of the experiments, read-out: IC90 values, MEAN): 33 nM | FC (IC50) (NF54^G358S-2 parasites; NF54G358S-2 compared to NF54WT): 0.9 fold | FC (IC90) (NF54^G358S-2 parasites; NF54G358S-2 compared to NF54WT): 1.1 fold | IC50 (NF54^G358S-2 parasites; [10]): 24 nM and 13.5 nM and 13.3 nM | IC90 (NF54^G358S-2 parasites; [11]): 48.2 nM and 27.4 nM and 26.7 nM | IC50 (NF54^G358S-2 parasites; Plasmodium falciparum, NF54, NF54G358S-2 parasites, individual experiments, read-out: IC50 values): 21.3 nM | IC90 (NF54^G358S-2 parasites; Plasmodium falciparum, NF54, NF54G358S-2 parasites, individual experiments, read-out: IC90 values): 30.8 nM | IC50 (NF54^G358S-2 parasites; Plasmodium falciparum, NF54, NF54G358S-2 parasites, mean of the experiments, read-out: IC50 values, MEAN): 18 nM | IC90 (NF54^G358S-2 parasites; Plasmodium falciparum, NF54, NF54G358S-2 parasites, mean of the experiments, read-out: IC90 values, MEAN): 33.3 nM | effect of the G358S mutation in PfATP4 on parasite susceptibility [2]: no effect
